The target of data set [1] is Melanin-concentrating hormone receptor 1 (Homo sapiens, UniProt Q99705). The experiment in a line: Antagonist activity against MCH1R expressed in CHO cells assessed as inhibition of MCH-induced EC80 […] response by luciferase reporter gene assay. It counts as functional, cell-based. (In general: In a reporter assay the amount or activity of a reporter protein is the signal.)

Data set [2] in a line: Bioavailability in rat at 3 mg/kg, iv and 5 to 10 mg/kg, po. It counts as ADME, organism-based. The conditions noted are these: in vivo.
The nature of data set [3]: Ratio of drug level in brain against plasma in mouse. The conditions noted are these: brain and plasma, read-out: BPR. In kind it is ADME, organism-based.
The test system of data set [4] is Mus musculus. Nature of the data set: Decrease in body weight of AKR/J DIO mouse relative to control after 15 days at 0.3 mg/kg, po. In kind it is functional. On the set-up: scale not given: the % may be the effect or the level left.
Data set [5] concerns Mus musculus. The experiment in a line: Decrease in body weight of AKR/J DIO mouse relative to control after 15 days at 1 mg/kg, po. On the set-up: scale not given: the % may be the effect or the level left. It counts as functional.
The test system of data set [6] is Mus musculus. Nature of the data set: Decrease in body weight of AKR/J DIO mouse relative to control after 15 days at 3 mg/kg, po. Also noted: scale not given: the % may be the effect or the level left. In kind it is functional.
Data set [7] deals with Mus musculus. The experiment in a line: Decrease in body weight of AKR/J DIO mouse relative to control after 15 days at 10 mg/kg, po. It counts as functional. On the set-up: scale not given: the % may be the effect or the level left.
Data set [8] is described as follows: Bioavailability in mouse at 1.6 mg/kg, iv and 5.2 mg/kg, po. Conditions: in vivo. In kind it is ADME, organism-based.
The nature of data set [9]: Half life in mouse. Conditions: in vivo. In kind it is ADME, organism-based.

35 compounds from ChEMBL document CHEMBL1146879, “Novel benzimidazole-based MCH R1 antagonists” (Bioorg Med Chem Lett, 2006) can be followed below.

Broadly, the IC50 is the concentration needed to halve the response being measured. A word on the bioavailability: it is the share of a dose that reaches the circulation, judged against a reference dose that is usually intravenous. What is called half-life is how long it takes for the measured level to halve.

Sequence of Melanin-concentrating hormone receptor 1 (Q99705 whole entry): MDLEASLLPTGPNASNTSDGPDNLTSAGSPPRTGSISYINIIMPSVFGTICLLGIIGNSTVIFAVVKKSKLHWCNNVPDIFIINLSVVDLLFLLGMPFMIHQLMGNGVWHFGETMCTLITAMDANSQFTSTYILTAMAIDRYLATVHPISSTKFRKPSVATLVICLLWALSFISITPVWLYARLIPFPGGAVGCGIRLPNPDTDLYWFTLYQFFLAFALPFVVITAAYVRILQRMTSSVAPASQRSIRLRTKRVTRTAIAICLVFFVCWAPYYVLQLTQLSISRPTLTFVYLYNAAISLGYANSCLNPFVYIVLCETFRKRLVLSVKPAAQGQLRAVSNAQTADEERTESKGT

`COc1ccc(-n2c(N(C)C)nc3cc(-n4cnc5cc(-c6ccc(Cl)cc6)sc5c4=O)ccc32)cc1`: in data set [1], the IC50 was 10 nM. Also, the bioavailability in data set [2] worked out at 16%.

For the compound `Cc1nc2cc(-n3cnc4cc(-c5ccc(Cl)cc5)sc4c3=O)ccc2n1CCCO`, the IC50 in [1] is 1.58 nM. The compound also yielded a bioavailability in [2] of at least 100%.

For the compound `COc1ccc(Cn2c(N(C)C)nc3cc(-n4cnc5cc(-c6ccc(Cl)cc6)sc5c4=O)ccc32)cc1`, the IC50 in [1] is 12.6 nM.

As to `COCCNc1nc2cc(-n3cnc4cc(-c5ccc(Cl)cc5)sc4c3=O)ccc2[nH]1`, the half-maximal inhibitory concentration (IC50) in [1] is 31.6 nM.

For `CNc1nc2cc(-n3cnc4cc(-c5ccc(Cl)cc5)sc4c3=O)ccc2[nH]1`, in data set [1], the IC50 is 3.98 nM. The bioavailability in [2] is 0%.

`CC(C)Nc1nc2cc(-n3cnc4cc(-c5ccc(Cl)cc5)sc4c3=O)ccc2[nH]1`: the IC50 in data set [1] is 7.94 nM.

As for `CCOc1ccc(-n2c(C)nc3cc(-n4cnc5cc(-c6ccc(Cl)cc6)sc5c4=O)ccc32)cc1`, the IC50 in data set [1] is 3.16 nM.

As to `CN(C)c1nc2cc(-n3cnc4cc(-c5ccc(Cl)cc5)sc4c3=O)ccc2[nH]1`, in data set [1], the IC50 is 2.51 nM. Besides, the bioavailability in [2] is 4%.

Consider `Cc1ccc(-n2c(C)nc3cc(-n4cnc5cc(-c6ccc(Cl)cc6)sc5c4=O)ccc32)cc1`, for which, in data set [1], the IC50 is 20 nM.

As to `Cn1c(N2CCCC2)nc2ccc(-n3cnc4cc(-c5ccc(Cl)cc5)sc4c3=O)cc21`, the IC50 in data set [1] is 6.31 nM. This compound came in with a bioavailability in [2] of at least 100%.

For `Cc1nc2cc(-n3cnc4cc(-c5ccc(Cl)cc5)sc4c3=O)ccc2n1-c1ccc(N(C)C)cc1`, in data set [1], the IC50 is 5.01 nM.

Turning to `COc1ccc(-n2c(C)nc3cc(-n4cnc5cc(-c6ccc(Cl)cc6)sc5c4=O)ccc32)cc1`, the IC50 in [1] was 5.01 nM. The bioavailability in data set [2] was 3%.

For the compound `Cc1nc2cc(-n3cnc4cc(-c5ccc(Cl)cc5)sc4c3=O)ccc2n1C1CCCCC1`, in data set [1], the IC50 was 6.31 nM. Moreover, the bioavailability in data set [2] was 0%.

As for `COCCCn1c(C)nc2cc(-n3cnc4cc(-c5ccc(Cl)cc5)sc4c3=O)ccc21`, the IC50 in data set [1] is 5.01 nM. In addition, the bioavailability in [2] was 40%.

Take `Cc1nc2cc(-n3cnc4cc(-c5ccc(Cl)cc5)sc4c3=O)ccc2n1-c1ccc(OC(C)C)cc1`: in [1], the IC50 is 7.94 nM.

Take `CN(C)c1nc2ccc(-n3cnc4cc(-c5ccc(Cl)cc5)sc4c3=O)cc2n1C`: the Kp in [3] came out at 2.6. Besides, the Activity with Mus musculus [4] is listed as -1.6%; in the data set with Mus musculus [5], -2.1%; in the data set with Mus musculus [6], -5.1%; with Mus musculus [7], -10%. The IC50 in data set [1] was 1.58 nM. The bioavailability was at least 100% in data set [2] and over 90% in [8]. In data set [9], the half-life was 6 h.

For the compound `O=c1c2sc(-c3ccc(Cl)cc3)cc2ncn1-c1ccc2[nH]c(N3CCCC3)nc2c1`, the half-maximal inhibitory concentration (IC50) in data set [1] is 3.16 nM. Also, in data set [2], the bioavailability stood at 76%.

Turning to `O=c1c2sc(-c3ccc(Cl)cc3)cc2ncn1-c1ccc2[nH]c(NC3CC3)nc2c1`, the IC50 in data set [1] was 15.8 nM.

Regarding `CN(C)c1nc2cc(-n3cnc4cc(-c5ccc(Cl)cc5)sc4c3=O)ccc2n1CCO`, in [1], the IC50 was 10 nM. In data set [2], this compound returned a bioavailability of 59%.

On to `CN1CCN(c2nc3cc(-n4cnc5cc(-c6ccc(Cl)cc6)sc5c4=O)ccc3[nH]2)CC1`, for which, in [1], the IC50 is 100 nM.

Take `CN(C)c1nc2ccc(-n3cnc4cc(-c5ccc(Cl)cc5)sc4c3=O)cc2n1CCO`: in [1], the IC50 was 12.6 nM. Also, the bioavailability in data set [2] stood at 55%.

As to `CN(CCN1CCCC1)c1nc2cc(-n3cnc4cc(-c5ccc(Cl)cc5)sc4c3=O)ccc2[nH]1`, the IC50 in data set [1] is 5.01 nM. The compound also gave a bioavailability in data set [2] of 0%.

With `CCCn1c(N(C)C)nc2ccc(-n3cnc4cc(-c5ccc(Cl)cc5)sc4c3=O)cc21`, in data set [1], the IC50 was 5.01 nM. Moreover, the bioavailability in [2] turned out to be 21%.

For `Cc1nc2cc(-n3cnc4cc(-c5ccc(Cl)cc5)sc4c3=O)ccc2n1CCN1CCOCC1`, in data set [1], the IC50 was 6.31 nM. In data set [2], this compound showed a bioavailability of 24%.

`Cc1nc2cc(-n3cnc4cc(-c5ccc(Cl)cc5)sc4c3=O)ccc2n1CCN1CCCC1`: the IC50 in [1] was 2 nM. In data set [2], this compound returned a bioavailability of 31%.

As for `CN(C)c1nc2cc(-n3cnc4cc(-c5ccc(Cl)cc5)sc4c3=O)ccc2n1C`, the IC50 in data set [1] is 6.31 nM.

For `O=c1c2sc(-c3ccc(Cl)cc3)cc2ncn1-c1ccc2[nH]c(NCCN3CCCC3)nc2c1`, the IC50 in data set [1] is 6.31 nM. In addition, in data set [2], the bioavailability came to 0%.

On to `CCCn1c(N(C)C)nc2cc(-n3cnc4cc(-c5ccc(Cl)cc5)sc4c3=O)ccc21`, for which the half-inhibitory concentration (IC50) in [1] was 5.01 nM. In data set [2], the bioavailability is 30%.

Regarding `Cn1c(N2CCCC2)nc2cc(-n3cnc4cc(-c5ccc(Cl)cc5)sc4c3=O)ccc21`, the IC50 in [1] is 25.1 nM.

As to `Cc1nc2cc(-n3cnc4cc(-c5ccc(Cl)cc5)sc4c3=O)ccc2[nH]1`, the IC50 in data set [1] is 25.1 nM.

On to `COc1ccc(Cn2c(N(C)C)nc3ccc(-n4cnc5cc(-c6ccc(Cl)cc6)sc5c4=O)cc32)cc1`, for which the IC50 in [1] was 2510 nM.

For the compound `Cc1nc2cc(-n3cnc4cc(-c5ccc(Cl)cc5)sc4c3=O)ccc2n1-c1ccccc1`, the IC50 in data set [1] was 31.6 nM.

As for `O=c1c2sc(-c3ccc(Cl)cc3)cc2ncn1-c1ccc2[nH]c(N3CCCCC3)nc2c1`, the IC50 in data set [1] was 5.01 nM. Moreover, the bioavailability in data set [2] is 31%.

As to `O=c1c2sc(-c3ccc(Cl)cc3)cc2ncn1-c1ccc2[nH]c(N3CCOCC3)nc2c1`, in data set [1], the half-inhibitory concentration (IC50) was 15.8 nM.

In the case of `Nc1nc2cc(-n3cnc4cc(-c5ccc(Cl)cc5)sc4c3=O)ccc2[nH]1`, in [1], the IC50 is 31.6 nM.
